# In US20220213060A1, “Crystal Form of Quinazolinone Compound and Preparation Method Therefor” (Luoxin Healthcare Science and Technology Development …, priority 2019, published 2022):
# Like-named read-outs stand apart in the source and are kept apart here.
# Tests used:
# [1] = Sprague Dawley (SD) rat absorption test (pharmacokinetics); format: in vivo, SD rats; conditions: for C0 / Tmax / bioavailability / Tmax at 7 days / Vd / AUC(0-t) / clearance / half-life / Cmax / half-life at 7 days: Sprague-Dawley, rat, plasma; for AUC0-last / t1/2: listed as crystal form A of the compound represented by formula (I); for Vd: read-out: Vdss
# Protocol: SD rats were given the crystal form A of the compound represented by formula (I) by single or multiple oral gavage and single intravenous injection respectively, with 6 rats in each group, half male and half female. According to the results of pharmacodynamic and toxicological experiments, the single oral gavage doses were 3, 10 and 30 mg/kg respectively; the multiple doses were 10 mg/kg, once a day for 7 consecutive days; the single intravenous dose was 1 mg/kg. According to the drug plasma concentration-time curve, the pharmacokinetic parameters were calculated. In this experiment, SD rats were provided by Beijing Vital River Experimental Animal Technology Co., Ltd., and were divided into 4 groups (3/sex/group) according to their similar weight. The vehicle for the intravenous group was 5% HP-betaCD/5% Solutol aqueous solution (pH=8); the vehicle for the oral group was 0.5% MC/0.2% Tw80 aqueous solution. Plasma samples were collected by jugular vein puncture in rats.
# [2] = Hygroscopicity by dynamic vapor sorption (DVS); format: physicochemical; conditions: 25° C. and 80% RH; listed as crystal form A of the compound represented by formula (I)
# Protocol: 1.4 Dynamic Vapor Sorption (DVS) Method of the Present Disclosure
# Instrument model: SMS DVS Advantage dynamic vapor sorption instrument
# Detection conditions: 10-20 mg of sample was placed in a DVS sample tray for testing.
# Detailed DVS parameters were as follows:
# Equilibrium: dm/dt=0.01%/min: (shortest: 10 min, longest: 180 min)
# Drying: drying at 0% RH for 120 min
# RH (%) test gradient: 10%
# RH (%) test gradient range: 0%-90%-0%
# Hygroscopicity evaluation is classified as follows:
# 20 mg of the crystal form A of the compound represented by formula (I) was placed in the DVS sample tray for testing.
# [3] = female SD rats, oral, 3 mg/kg, single
# [4] = male SD rats, oral, 3 mg/kg, single
# [5] = female SD rats, vein, 1 mg/kg, single
# [6] = female, iv, 1 mg/kg, female SD rats, vein, single
# [7] = female, po, 3 mg/kg, female SD rats, single
# [8] = female, po, 10 mg/kg, female SD rats, oral, 10 mg/kg once a day, Day 7
# [9] = female, po, 10 mg/kg, female SD rats, oral, 10 mg/kg, Day 1
# [10] = female, po, 30 mg/kg, female SD rats, single
# [11] = male SD rats, vein, 1 mg/kg, single
# [12] = male, iv, 1 mg/kg, male SD rats, vein, single
# [13] = male, po, 3 mg/kg, male SD rats, single
# [14] = male, po, 10 mg/kg, male SD rats, oral, 10 mg/kg once a day, Day 7
# [15] = male, po, 10 mg/kg, male SD rats, oral, 10 mg/kg, Day 1
# [16] = male, po, 30 mg/kg, male SD rats, single
smiles,measurement,setting,value
CNC(=O)[C@H](C)Cn1cnc2ccc(-c3cnc(OC)c(NS(=O)(=O)c4ccc(F)cc4F)c3)cc2c1=O,C0,"[1]; iv, female SD rats, vein, 1 mg/kg, single",14.2 µM
same,C0,"[1]; iv, male SD rats, vein, 1 mg/kg, single",12.7 µM
same,Tmax,[1]; [3],0.5 h
same,bioavailability,[1]; [3],53.1%
same,Tmax at 7 days,"[1]; female SD rats, oral, 10 mg/kg once a day, Day 7",0.5 h
same,Tmax,"[1]; female SD rats, oral, 10 mg/kg, Day 1",0.667 ± 0.289 h
same,Tmax,"[1]; female SD rats, oral, 30 mg/kg, single",0.5 h
same,Tmax,[1]; [4],0.417 ± 0.144 h
same,bioavailability,[1]; [4],34.7%
same,Tmax at 7 days,"[1]; male SD rats, oral, 10 mg/kg once a day, Day 7",0.667 h
same,Tmax,"[1]; male SD rats, oral, 10 mg/kg, Day 1",0.5 h
same,Tmax,"[1]; male SD rats, oral, 30 mg/kg, single",0.667 ± 0.289 h
same,AUC0-last,[1]; [5],17.4 µM·h
same,t1/2,[1]; [5],3.26 h
same,Vd,"[1]; female, iv, 1 mg/kg, female SD rats, vein, 1 mg/kg, single",0.257 ± 0.0227 L/kg
same,AUC(0-t),[1]; [6],9.89 ± 1.41 µM·h
same,clearance,[1]; [6],3.12 ± 0.431 mL/min/kg
same,half-life,[1]; [6],1.63 ± 0.809 h
same,AUC(0-t),[1]; [7],27.7 ± 8.72 µM·h
same,Cmax,[1]; [7],6.39 ± 1.71 µM
same,half-life,[1]; [7],2.71 h
same,AUC(0-t),[1]; [8],86 ± 19.9 µM·h
same,Cmax,[1]; [8],20.5 ± 4.6 µM
same,half-life at 7 days,[1]; [8],3.74 h
same,AUC(0-t),[1]; [9],60.9 ± 10.9 µM·h
same,Cmax,[1]; [9],12.1 ± 3.69 µM
same,half-life,[1]; [9],2.92 h
same,AUC(0-t),[1]; [10],177 ± 48 µM·h
same,Cmax,[1]; [10],39.1 µM
same,half-life,[1]; [10],2.72 h
same,AUC0-last,[1]; [11],9.89 µM·h
same,t1/2,[1]; [11],1.63 h
same,Vd,"[1]; male, iv, 1 mg/kg, male SD rats, vein, 1 mg/kg, single",0.265 ± 0.05 L/kg
same,AUC(0-t),[1]; [12],17.4 ± 4.79 µM·h
same,clearance,[1]; [12],1.79 ± 0.457 mL/min/kg
same,half-life,[1]; [12],3.26 ± 1.13 h
same,AUC(0-t),[1]; [13],10.3 ± 4.6 µM·h
same,Cmax,[1]; [13],4.77 ± 1.01 µM
same,half-life,[1]; [13],2.26 h
same,AUC(0-t),[1]; [14],48.5 ± 4.64 µM·h
same,Cmax,[1]; [14],13.9 ± 1.61 µM
same,half-life at 7 days,[1]; [14],3.95 h
same,AUC(0-t),[1]; [15],23.7 ± 0.721 µM·h
same,Cmax,[1]; [15],6.8 ± 0.583 µM
same,half-life,[1]; [15],2.49 h
same,AUC(0-t),[1]; [16],45.3 ± 10.9 µM·h
same,Cmax,[1]; [16],14.5 ± 4.73 µM
same,half-life,[1]; [16],2.61 h
same,Classification for hygroscopicity,[2],slightly hygroscopic (2% > ΔW% ≥ 0.2%)
same,"ΔW, hygroscopical weight gain",[2],0.885%
